# Reference: patent US9573911B2, “Diphosphate mimetics and uses thereof” (President and Fellows of Harvard College, priority 2011, dated 2017)
# How the values were obtained:
# Experiment in all cases: Further kinase screen, Invitrogen Z'-LYTE
# Assay type in all cases: biochemical
# Conditions in all cases: Table 3
# [1] = biological target: T1, CAMK2A (CaMKII alpha) (Homo sapiens, UniProt Q9UQM7)
# T1 construct: purchased Invitrogen
# Experimental: (§1) Kinase profiling was conducted using Invitrogen Z'-LYTE screening protocol and assay conditions found at www.invitrogen.com. Compound (2) inhibited PLK1 completely at 5 μM.
# (§2) A further kinase screen was performed on Compounds (2), (4A), and (4B) using the assay described above.
# [2] = biological target: T2, SGK (SGK1) (Homo sapiens, UniProt O00141)
# T2 construct: purchased Invitrogen
# T2 sequence (O00141 1-431): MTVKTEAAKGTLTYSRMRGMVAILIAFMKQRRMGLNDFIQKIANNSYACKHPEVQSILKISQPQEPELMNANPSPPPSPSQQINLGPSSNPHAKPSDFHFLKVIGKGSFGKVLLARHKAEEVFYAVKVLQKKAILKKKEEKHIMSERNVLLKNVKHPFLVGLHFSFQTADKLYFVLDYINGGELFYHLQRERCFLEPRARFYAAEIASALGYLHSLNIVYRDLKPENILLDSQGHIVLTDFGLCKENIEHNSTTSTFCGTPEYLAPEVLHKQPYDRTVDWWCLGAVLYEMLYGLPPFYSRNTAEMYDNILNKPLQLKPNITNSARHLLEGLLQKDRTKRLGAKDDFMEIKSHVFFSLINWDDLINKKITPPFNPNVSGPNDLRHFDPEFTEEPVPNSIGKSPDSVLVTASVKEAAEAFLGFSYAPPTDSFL
# Experimental: as §1, §2
# [3] = biological target: T3, CSNK1G3 (CK1 gamma 3) (Homo sapiens, UniProt Q9Y6M4)
# T3 construct: purchased Invitrogen
# T3 sequence (Q9Y6M4 whole entry): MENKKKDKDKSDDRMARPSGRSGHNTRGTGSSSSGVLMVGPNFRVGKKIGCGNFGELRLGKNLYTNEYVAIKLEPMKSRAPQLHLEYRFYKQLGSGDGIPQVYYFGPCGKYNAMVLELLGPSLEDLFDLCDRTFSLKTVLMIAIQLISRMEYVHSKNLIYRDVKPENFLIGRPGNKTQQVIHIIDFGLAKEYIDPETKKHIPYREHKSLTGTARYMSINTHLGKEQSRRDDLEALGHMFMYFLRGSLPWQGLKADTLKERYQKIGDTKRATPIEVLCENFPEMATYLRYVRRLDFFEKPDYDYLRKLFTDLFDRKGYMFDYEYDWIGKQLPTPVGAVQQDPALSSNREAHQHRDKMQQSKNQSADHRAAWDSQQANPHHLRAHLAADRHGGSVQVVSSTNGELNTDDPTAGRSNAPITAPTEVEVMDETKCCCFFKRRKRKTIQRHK
# Experimental: as §1, §2
# [4] = biological target: T4, GRK6 (Homo sapiens, UniProt P43250)
# T4 construct: purchased Invitrogen
# T4 sequence (P43250 whole entry): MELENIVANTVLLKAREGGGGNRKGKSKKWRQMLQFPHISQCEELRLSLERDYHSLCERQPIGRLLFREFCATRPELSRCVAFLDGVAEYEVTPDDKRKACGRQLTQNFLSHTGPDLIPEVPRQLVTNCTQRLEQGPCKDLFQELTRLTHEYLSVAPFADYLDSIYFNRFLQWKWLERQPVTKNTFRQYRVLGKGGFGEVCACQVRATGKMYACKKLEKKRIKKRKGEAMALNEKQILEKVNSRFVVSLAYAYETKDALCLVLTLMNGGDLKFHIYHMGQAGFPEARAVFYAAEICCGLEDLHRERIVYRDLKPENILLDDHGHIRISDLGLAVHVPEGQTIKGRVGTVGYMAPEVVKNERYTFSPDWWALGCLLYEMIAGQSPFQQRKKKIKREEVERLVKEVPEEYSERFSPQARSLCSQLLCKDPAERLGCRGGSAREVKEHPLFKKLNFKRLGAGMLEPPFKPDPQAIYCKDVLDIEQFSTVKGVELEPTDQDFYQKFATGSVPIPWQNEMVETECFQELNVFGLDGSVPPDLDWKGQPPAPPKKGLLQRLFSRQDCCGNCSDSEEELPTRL
# Experimental: as §1, §2
# [5] = biological target: T5, RPS6KB1 (p70S6K) (Homo sapiens, UniProt P23443)
# T5 construct: purchased Invitrogen
# T5 sequence (P23443 whole entry): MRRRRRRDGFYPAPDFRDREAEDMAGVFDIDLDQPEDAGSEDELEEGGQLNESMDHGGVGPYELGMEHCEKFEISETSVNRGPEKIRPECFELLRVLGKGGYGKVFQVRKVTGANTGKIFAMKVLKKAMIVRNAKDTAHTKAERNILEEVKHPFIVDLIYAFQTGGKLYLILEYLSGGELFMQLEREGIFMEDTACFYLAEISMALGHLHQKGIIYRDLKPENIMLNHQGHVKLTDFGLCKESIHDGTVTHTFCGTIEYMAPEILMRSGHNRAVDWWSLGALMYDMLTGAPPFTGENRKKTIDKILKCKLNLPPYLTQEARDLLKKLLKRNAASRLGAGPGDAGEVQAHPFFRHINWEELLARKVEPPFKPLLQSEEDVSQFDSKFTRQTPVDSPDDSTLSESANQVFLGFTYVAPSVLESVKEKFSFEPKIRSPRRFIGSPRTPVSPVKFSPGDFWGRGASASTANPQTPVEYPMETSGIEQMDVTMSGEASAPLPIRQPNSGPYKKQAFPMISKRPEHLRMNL
# Experimental: as §1, §2
# [6] = biological target: T6, SRPK1 (Homo sapiens, UniProt Q96SB4)
# T6 construct: purchased Invitrogen
# T6 sequence (Q96SB4 whole entry): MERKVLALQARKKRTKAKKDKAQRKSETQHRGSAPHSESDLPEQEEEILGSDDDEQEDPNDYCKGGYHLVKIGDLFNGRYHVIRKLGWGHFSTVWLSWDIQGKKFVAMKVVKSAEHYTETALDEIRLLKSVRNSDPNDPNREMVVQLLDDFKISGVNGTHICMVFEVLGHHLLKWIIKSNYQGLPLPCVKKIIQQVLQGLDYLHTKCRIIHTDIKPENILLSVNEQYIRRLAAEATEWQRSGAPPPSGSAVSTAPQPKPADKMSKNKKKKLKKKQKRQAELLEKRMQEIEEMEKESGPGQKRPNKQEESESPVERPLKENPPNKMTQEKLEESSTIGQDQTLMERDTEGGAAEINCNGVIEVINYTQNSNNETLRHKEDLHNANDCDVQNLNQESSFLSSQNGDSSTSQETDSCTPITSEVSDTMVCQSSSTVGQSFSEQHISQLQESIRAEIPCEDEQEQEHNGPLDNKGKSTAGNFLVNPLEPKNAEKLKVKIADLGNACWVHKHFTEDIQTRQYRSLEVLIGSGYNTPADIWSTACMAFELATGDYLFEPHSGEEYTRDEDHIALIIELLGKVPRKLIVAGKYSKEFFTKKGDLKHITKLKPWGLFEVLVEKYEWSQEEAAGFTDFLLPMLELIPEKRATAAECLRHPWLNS
# Experimental: as §1, §2
# [7] = biological target: T7, GSK3B (GSK3 beta) (Homo sapiens, UniProt P49841)
# T7 construct: purchased Invitrogen
# Experimental: as §1, §2
# [8] = biological target: T8, RPS6KA5 (MSK1) (Homo sapiens, UniProt O75582)
# T8 construct: purchased Invitrogen
# T8 sequence (O75582 whole entry): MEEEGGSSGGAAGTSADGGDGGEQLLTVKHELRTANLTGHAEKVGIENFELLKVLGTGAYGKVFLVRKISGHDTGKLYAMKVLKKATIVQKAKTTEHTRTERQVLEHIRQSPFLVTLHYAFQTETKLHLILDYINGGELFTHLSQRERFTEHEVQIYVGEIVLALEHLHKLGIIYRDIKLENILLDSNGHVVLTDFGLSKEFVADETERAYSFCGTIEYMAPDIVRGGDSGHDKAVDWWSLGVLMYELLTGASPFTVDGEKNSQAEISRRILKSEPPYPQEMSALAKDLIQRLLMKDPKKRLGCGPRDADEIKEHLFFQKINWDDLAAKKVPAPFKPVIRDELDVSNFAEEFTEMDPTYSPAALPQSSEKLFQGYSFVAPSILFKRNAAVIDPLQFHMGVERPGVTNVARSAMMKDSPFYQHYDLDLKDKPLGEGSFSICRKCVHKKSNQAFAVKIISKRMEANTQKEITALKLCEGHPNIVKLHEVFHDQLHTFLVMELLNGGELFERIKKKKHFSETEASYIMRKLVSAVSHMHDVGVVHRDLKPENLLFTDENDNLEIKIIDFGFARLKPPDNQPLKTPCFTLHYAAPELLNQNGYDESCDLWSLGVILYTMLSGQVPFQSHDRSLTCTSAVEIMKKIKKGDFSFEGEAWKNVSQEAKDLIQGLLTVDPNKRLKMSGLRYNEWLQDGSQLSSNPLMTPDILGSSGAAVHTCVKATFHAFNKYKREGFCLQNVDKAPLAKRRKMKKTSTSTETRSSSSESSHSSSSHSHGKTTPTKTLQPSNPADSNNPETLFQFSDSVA
# Experimental: as §1, §2
# [9] = biological target: T9, JAK3 (Homo sapiens, UniProt P52333)
# T9 construct: purchased Invitrogen
# T9 sequence (P52333 1-1124): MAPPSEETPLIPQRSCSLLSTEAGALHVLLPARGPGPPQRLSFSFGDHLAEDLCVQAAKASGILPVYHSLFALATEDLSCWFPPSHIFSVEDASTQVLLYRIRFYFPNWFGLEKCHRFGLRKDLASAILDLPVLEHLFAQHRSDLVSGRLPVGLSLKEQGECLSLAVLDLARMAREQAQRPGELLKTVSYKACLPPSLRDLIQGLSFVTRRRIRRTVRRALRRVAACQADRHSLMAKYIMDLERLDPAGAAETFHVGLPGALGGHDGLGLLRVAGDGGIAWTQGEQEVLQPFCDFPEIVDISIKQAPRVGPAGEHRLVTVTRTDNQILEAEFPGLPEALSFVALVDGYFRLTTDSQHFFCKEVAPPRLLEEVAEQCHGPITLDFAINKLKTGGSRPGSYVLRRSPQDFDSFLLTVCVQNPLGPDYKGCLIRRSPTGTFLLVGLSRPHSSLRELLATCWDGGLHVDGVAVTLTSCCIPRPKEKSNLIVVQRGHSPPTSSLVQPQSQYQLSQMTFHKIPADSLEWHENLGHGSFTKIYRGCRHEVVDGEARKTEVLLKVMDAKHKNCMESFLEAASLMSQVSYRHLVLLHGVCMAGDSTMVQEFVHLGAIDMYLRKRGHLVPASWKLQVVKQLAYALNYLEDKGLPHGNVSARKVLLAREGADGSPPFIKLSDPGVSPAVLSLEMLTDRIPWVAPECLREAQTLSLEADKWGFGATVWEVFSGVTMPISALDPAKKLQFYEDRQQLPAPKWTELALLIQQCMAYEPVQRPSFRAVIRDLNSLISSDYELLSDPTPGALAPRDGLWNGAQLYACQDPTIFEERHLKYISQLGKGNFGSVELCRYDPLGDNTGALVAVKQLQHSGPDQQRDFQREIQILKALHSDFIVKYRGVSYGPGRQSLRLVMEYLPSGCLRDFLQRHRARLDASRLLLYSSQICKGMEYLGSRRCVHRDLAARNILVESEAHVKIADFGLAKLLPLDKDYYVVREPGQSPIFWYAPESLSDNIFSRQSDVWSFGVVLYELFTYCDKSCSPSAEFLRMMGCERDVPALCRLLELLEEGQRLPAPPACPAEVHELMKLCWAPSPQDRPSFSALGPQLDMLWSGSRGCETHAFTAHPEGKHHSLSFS
# Experimental: as §1, §2
# [10] = biological target: T10, RPS6KA3 (RSK2) (Homo sapiens, UniProt P51812)
# T10 construct: purchased Invitrogen
# T10 sequence (P51812 whole entry): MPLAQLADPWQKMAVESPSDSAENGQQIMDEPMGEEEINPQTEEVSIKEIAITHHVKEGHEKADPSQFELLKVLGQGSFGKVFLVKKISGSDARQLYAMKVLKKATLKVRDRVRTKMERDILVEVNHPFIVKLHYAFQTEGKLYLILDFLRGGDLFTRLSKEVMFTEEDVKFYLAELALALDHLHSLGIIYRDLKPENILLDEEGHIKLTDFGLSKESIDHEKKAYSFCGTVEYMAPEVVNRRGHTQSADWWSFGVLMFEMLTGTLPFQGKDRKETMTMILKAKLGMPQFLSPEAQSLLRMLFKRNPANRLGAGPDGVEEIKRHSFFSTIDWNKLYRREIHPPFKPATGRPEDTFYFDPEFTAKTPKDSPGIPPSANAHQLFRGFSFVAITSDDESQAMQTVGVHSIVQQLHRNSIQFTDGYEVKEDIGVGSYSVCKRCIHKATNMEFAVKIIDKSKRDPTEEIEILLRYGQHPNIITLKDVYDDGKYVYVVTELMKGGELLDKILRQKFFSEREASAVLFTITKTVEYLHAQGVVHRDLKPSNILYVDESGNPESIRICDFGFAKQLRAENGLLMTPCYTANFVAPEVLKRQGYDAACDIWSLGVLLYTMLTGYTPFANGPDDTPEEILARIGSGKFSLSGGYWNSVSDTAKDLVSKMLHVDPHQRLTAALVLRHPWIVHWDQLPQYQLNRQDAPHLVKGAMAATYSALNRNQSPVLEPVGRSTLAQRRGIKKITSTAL
# Experimental: as §1, §2
# [11] = biological target: T11, CAMK4 (CaMKIV) (Homo sapiens, UniProt Q16566)
# T11 construct: purchased Invitrogen
# Experimental: as §1, §2
# [12] = biological target: T12, TYK2 (Homo sapiens, UniProt P29597)
# T12 construct: purchased Invitrogen
# T12 sequence (P29597 whole entry): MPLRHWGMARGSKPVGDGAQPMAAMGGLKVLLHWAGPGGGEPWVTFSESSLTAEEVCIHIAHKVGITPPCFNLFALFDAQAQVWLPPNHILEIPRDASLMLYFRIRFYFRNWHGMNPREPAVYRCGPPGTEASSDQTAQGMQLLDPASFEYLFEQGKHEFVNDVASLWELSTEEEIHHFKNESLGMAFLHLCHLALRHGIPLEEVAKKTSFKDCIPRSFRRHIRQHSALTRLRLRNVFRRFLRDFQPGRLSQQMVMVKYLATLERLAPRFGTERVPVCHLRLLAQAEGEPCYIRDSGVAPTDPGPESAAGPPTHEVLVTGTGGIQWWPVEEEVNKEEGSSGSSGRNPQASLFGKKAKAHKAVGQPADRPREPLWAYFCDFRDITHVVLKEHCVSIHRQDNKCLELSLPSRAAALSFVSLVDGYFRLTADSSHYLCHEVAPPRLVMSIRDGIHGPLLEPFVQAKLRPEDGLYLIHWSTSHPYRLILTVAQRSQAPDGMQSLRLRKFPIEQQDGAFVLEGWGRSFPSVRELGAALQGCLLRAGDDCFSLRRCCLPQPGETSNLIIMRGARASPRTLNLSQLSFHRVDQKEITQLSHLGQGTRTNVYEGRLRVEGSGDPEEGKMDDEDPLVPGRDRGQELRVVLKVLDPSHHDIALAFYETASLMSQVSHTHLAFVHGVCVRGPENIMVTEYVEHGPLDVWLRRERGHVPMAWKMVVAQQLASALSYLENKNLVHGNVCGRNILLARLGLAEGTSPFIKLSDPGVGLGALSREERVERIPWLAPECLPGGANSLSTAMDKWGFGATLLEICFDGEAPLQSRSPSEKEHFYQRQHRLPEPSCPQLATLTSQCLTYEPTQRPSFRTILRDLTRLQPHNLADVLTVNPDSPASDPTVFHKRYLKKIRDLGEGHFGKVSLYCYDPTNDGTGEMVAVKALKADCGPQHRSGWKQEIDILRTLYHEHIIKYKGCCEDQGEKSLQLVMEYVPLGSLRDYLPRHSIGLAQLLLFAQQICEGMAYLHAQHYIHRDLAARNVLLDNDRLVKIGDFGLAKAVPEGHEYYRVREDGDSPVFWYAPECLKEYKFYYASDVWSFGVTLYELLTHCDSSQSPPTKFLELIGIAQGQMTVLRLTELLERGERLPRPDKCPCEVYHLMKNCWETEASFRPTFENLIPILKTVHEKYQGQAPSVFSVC
# Experimental: as §1, §2
# [13] = biological target: T13, SYK (Homo sapiens, UniProt P43405)
# T13 construct: purchased Invitrogen
# Experimental: as §1, §2
# [14] = biological target: T14, CDK2/cyclin A (Homo sapiens, UniProt P24941)
# T14 construct: purchased Invitrogen
# Experimental: as §1, §2
structure (smiles),measurement,setting,value
COc1ccc(OC(=O)n2c(=O)oc3cc(C(C)=O)ccc32)cc1 [Compound 2],% Inhibition Point 1,[1],−14%
same,% Inhibition Point 2,[1],−10%
same,% Inhibition mean,[1],−12%
same,% Inhibition Point 1,[2],−234%
same,% Inhibition Point 2,[2],−237%
same,% Inhibition mean,[2],−236%
same,% Inhibition Point 1,[3],13%
same,% Inhibition Point 2,[3],16%
same,% Inhibition mean,[3],14%
same,% Inhibition Point 1,[4],14%
same,% Inhibition Point 2,[4],17%
same,% Inhibition mean,[4],16%
same,% Inhibition Point 1,[5],−138%
same,% Inhibition Point 2,[5],−122%
same,% Inhibition mean,[5],−130%
same,% Inhibition Point 1,[6],−49%
same,% Inhibition Point 2,[6],−38%
same,% Inhibition mean,[6],−44%
same,% Inhibition Point 1,[7],−7%
same,% Inhibition Point 2,[7],0%
same,% Inhibition mean,[7],−4%
same,% Inhibition Point 1,[8],−215%
same,% Inhibition Point 2,[8],−231%
same,% Inhibition mean,[8],−223%
same,% Inhibition Point 1,[9],−90%
same,% Inhibition Point 2,[9],−83%
same,% Inhibition mean,[9],−86%
same,% Inhibition Point 1,[10],−200%
same,% Inhibition Point 2,[10],−212%
same,% Inhibition mean,[10],−206%
same,% Inhibition Point 1,[11],−159%
same,% Inhibition Point 2,[11],−201%
same,% Inhibition mean,[11],−180%
same,% Inhibition Point 1,[12],−98%
same,% Inhibition Point 2,[12],−99%
same,% Inhibition mean,[12],−99%
same,% Inhibition Point 1,[13],4%
same,% Inhibition Point 2,[13],−4%
same,% Inhibition mean,[13],0%
same,% Inhibition Point 1,[14],−297%
same,% Inhibition Point 2,[14],−301%
same,% Inhibition mean,[14],−299%
COc1ccc(OC(=S)n2c(=O)oc3cc(C(C)=O)ccc32)cc1 [Compound 4A],% Inhibition Point 1,[1],20%
same,% Inhibition Point 2,[1],24%
same,% Inhibition mean,[1],22%
same,% Inhibition Point 1,[2],76%
same,% Inhibition Point 2,[2],75%
same,% Inhibition mean,[2],76%
same,% Inhibition Point 1,[3],30%
same,% Inhibition Point 2,[3],31%
same,% Inhibition mean,[3],31%
same,% Inhibition Point 1,[4],42%
same,% Inhibition Point 2,[4],43%
same,% Inhibition mean,[4],42%
same,% Inhibition Point 1,[5],19%
same,% Inhibition Point 2,[5],22%
same,% Inhibition mean,[5],21%
same,% Inhibition Point 1,[6],−6%
same,% Inhibition Point 2,[6],2%
same,% Inhibition mean,[6],−2%
same,% Inhibition Point 1,[7],61%
same,% Inhibition Point 2,[7],60%
same,% Inhibition mean,[7],60%
same,% Inhibition Point 1,[8],35%
same,% Inhibition Point 2,[8],32%
same,% Inhibition mean,[8],33%
same,% Inhibition Point 1,[9],41%
same,% Inhibition Point 2,[9],30%
same,% Inhibition mean,[9],36%
same,% Inhibition Point 1,[10],55%
same,% Inhibition Point 2,[10],56%
same,% Inhibition mean,[10],55%
same,% Inhibition Point 1,[11],18%
same,% Inhibition Point 2,[11],24%
same,% Inhibition mean,[11],21%
same,% Inhibition Point 1,[12],7%
same,% Inhibition Point 2,[12],11%
same,% Inhibition mean,[12],9%
same,% Inhibition Point 1,[13],21%
same,% Inhibition Point 2,[13],24%
same,% Inhibition mean,[13],23%
same,% Inhibition Point 1,[14],9%
same,% Inhibition Point 2,[14],9%
same,% Inhibition mean,[14],9%
COc1ccc(OC(=O)n2c(=S)oc3cc(C(C)=O)ccc32)cc1 [Compound 4B],% Inhibition Point 1,[1],57%
same,% Inhibition Point 2,[1],55%
same,% Inhibition mean,[1],56%
same,% Inhibition Point 1,[2],72%
same,% Inhibition Point 2,[2],73%
same,% Inhibition mean,[2],73%
same,% Inhibition Point 1,[3],51%
same,% Inhibition Point 2,[3],48%
same,% Inhibition mean,[3],49%
same,% Inhibition Point 1,[4],71%
same,% Inhibition Point 2,[4],71%
same,% Inhibition mean,[4],71%
same,% Inhibition Point 1,[5],35%
same,% Inhibition Point 2,[5],44%
same,% Inhibition mean,[5],40%
same,% Inhibition Point 1,[6],0%
same,% Inhibition Point 2,[6],2%
same,% Inhibition mean,[6],1%
same,% Inhibition Point 1,[7],92%
same,% Inhibition Point 2,[7],93%
same,% Inhibition mean,[7],93%
same,% Inhibition Point 1,[8],49%
same,% Inhibition Point 2,[8],48%
same,% Inhibition mean,[8],49%
same,% Inhibition Point 1,[9],65%
same,% Inhibition Point 2,[9],64%
same,% Inhibition mean,[9],65%
same,% Inhibition Point 1,[10],58%
same,% Inhibition Point 2,[10],64%
same,% Inhibition mean,[10],61%
same,% Inhibition Point 1,[11],52%
same,% Inhibition Point 2,[11],46%
same,% Inhibition mean,[11],49%
same,% Inhibition Point 1,[12],17%
same,% Inhibition Point 2,[12],21%
same,% Inhibition mean,[12],19%
same,% Inhibition Point 1,[13],58%
same,% Inhibition Point 2,[13],54%
same,% Inhibition mean,[13],56%
same,% Inhibition Point 1,[14],−2%
same,% Inhibition Point 2,[14],4%
same,% Inhibition mean,[14],1%
